Measurements from publication PMC3820767, “Turning Defense into Offense: Defensin Mimetics as Novel Antibiotics Targeting Lipid II” (PLoS Pathogens, 2013).
In brackets after ≈: the same amount, converted by molar mass. Like-named read-outs stand apart in the source and are kept apart here.

Columns and labels:
[1] = system: Streptococcus pneumonia (PRSP) MMX884; experiment: Broth microdilution susceptibility testing (CLSI); type: cell-based, Streptococcus pneumoniae
Experimental: (§1) The antibacterial activity of defensin mimetics against Staphylococcus aureus ATCC 29213 and Escherichia coli 25922 was carried out in a 96-well turbidimetric assay essentially as described previously with the following modifications: bacteria were exposed for 30 min to compounds in 10 mM phosphate buffer containing 5% DMSO prior to addition of 2× Muller-Hinton medium. Bacterial growth was monitored for 12 hours and data were analyzed as described. Determination of MICs was performed by Micromyx, LLC (Kalamazoo, Michigan) according to CLSI standards.

[2] = system: Enterococcus faecalis MMX101-ATCC 29212; experiment: Broth microdilution susceptibility testing (CLSI); type: cell-based
Experimental: as §1

[3] = system: Escherichia coli MMX102-ATCC 25922; experiment: Broth microdilution susceptibility testing (CLSI); type: cell-based
Experimental: as §1

[4] = system: Staphylococcus aureus MMX100-ATCC 29213; experiment: Broth microdilution susceptibility testing (CLSI); type: cell-based
Experimental: as §1

[5] = system: Enterococcus faecalis (VRE) MMX848; experiment: Broth microdilution susceptibility testing (CLSI); type: cell-based
Experimental: as §1

[6] = system: Pseudomonas aeruginosa MMX103-ATCC 27853; experiment: Broth microdilution susceptibility testing (CLSI); type: cell-based
Experimental: as §1

[7] = system: Streptococcus pneumoniae MMX1195-ATCC 49619; experiment: Broth microdilution susceptibility testing (CLSI); type: cell-based
Experimental: as §1

[8] = system: Staphylococcus aureus (MRSA) MMX757; experiment: Broth microdilution susceptibility testing (CLSI); type: cell-based
Experimental: as §1

Jurkat = experiment: Cytotoxicity by MTT assay; type: cell-based, human
Caco-2 = experiment: Cytotoxicity by MTT assay; type: cell-based, human
[9] = system: Escherichia coli ATCC 25922; experiment: Antibacterial killing, 96-well turbidimetric (modified vCC) assay; type: cell-based; details: for active against E.coli (IC100%): Table S3, concentration at which 100% killing occurred, no bacterial regrowth, No = not active; for Bacterial Killing E. coli: concentration resulting in 100% killing after 30 min exposure, modified vCC assay
Experimental: as §1

[10] = system: Staphylococcus aureus ATCC 29213; experiment: as above; type: cell-based; details: for active against S.aureus (IC100%): Table S3, concentration at which 100% killing occurred, no bacterial regrowth, No = not active; for Bacterial Killing S. aureus: concentration resulting in 100% killing after 30 min exposure, modified vCC assay
Experimental: as §1

[11] = Surface Plasmon Resonance binding to immobilized 3-Lipid II; details: SPR; for Binding on Lipid II?: Table S3, initial determination at 10 µM; for Kd: immobilized 3-Lipid II
Experimental: Surface Plasmon Resonance binding experiments were carried out on a BIAcore T100 system (BIAcore Inc., Piscataway, NY) at 25°C. The assay buffer was 10 mM HEPES, 150 mM NaCl, 0.05% surfactant P20, pH 7.4 (±3 mM EDTA) supplemented with 10% DMSO. […] For initial determination of binding, defensin mimetics were introduced into the flow-cells (30 µl/min) in the running buffer at 10 µM. Resonance signals were corrected for nonspecific binding by subtracting the background of the control flow-cell. After each analysis, the sensor chip surfaces were regenerated with 50 mM NaOH for 30 s at a flow rate 100 µl/min, and equilibrated with the buffer prior to next injection. For binding kinetics studies, binding isotherms were analyzed with manufacturer-supplied software for BIAcore T100.

| MIC Streptococcus pneumonia (PRSP) 884-NA [1] [µg/mL] | MIC Enterococcus faecalis 101-29212 [2] [µg/mL] | MIC Escherichia coli 102-25922 [3] [µg/mL] | MIC Staphylococcus aureus 100-29213 [4] [µg/mL] | MIC Enterococcus faecalis (VRE) 848-NA [5] [µg/mL] | MIC Pseudomonas aeruginosa 103-27853 [6] [µg/mL] | MIC Streptococcus pneumoniae 1195-49619 [7] [µg/mL] | MIC Staphylococcus aureus (MRSA) 757-NA [8] [µg/mL] | Binding on Lipid II? [11] | Kd [11] [µM] | SMILES | IC50 (Jurkat) [µM] | IC50 (Caco-2) [µM] | active against E.coli (IC100%) [9] | Bacterial Killing E. coli [9] [µM] | active against S.aureus (IC100%) [10] | Bacterial Killing S. aureus [10] [µM] | also measured |
| --- | --- | --- | --- | --- | --- | --- | --- | --- | --- | --- | --- | --- | --- | --- | --- | --- | --- |
| 16 | 2 | >8 | 1 | 4 | >8 | 16 | 2 | Yes | 4.26 | CN(C)c1ccc(/C=C/c2cc(C(C)(C)C)[o+]c(C(C)(C)C)c2)cc1 [Compound 1493-0289, 2,6-di-tert-butyl-4-[(E)-2-[4-(dimethylamino)phenyl]ethenyl]-1$l^4-pyran-1-ylium] | 41.7 | 6.8 | 125 µM | 125 | 3,9 µM | 3.9 | – |
| >8 | 16 | 64 | 2 | 16 | >64 | >8 | 2 | No | – | CC[n+]1c(/C=C2C=C(/C=C/N(C)c3ccccc3)CC(C)(C)C/2)sc2ccccc21 [Compound 4090-1978, 2-{[(1E)-5,5-dimethyl-3-[(E)-2-[methyl(phenyl)amino]ethenyl]cyclohex-2-en-1-ylidene]methyl}-3-ethyl-1,3-benzothiazol-3-ium] | 87.3 | 16.7 | 62,5 µM | 62.5 | 15,625 µM | 15.6 | – |
| 16 (≈ 38.9 µM) | 1 (≈ 2.43 µM) | >32 | 1 (≈ 2.43 µM) | 1 (≈ 2.43 µM) | >32 | 8 (≈ 19.5 µM) | 1 (≈ 2.43 µM) | Yes | 39.5 | Oc1ccc2ccccc2c1C(c1ccc(Cl)cc1)c1c(O)ccc2ccccc12 [Compound 363003] | 12.7 | 3.5 | No | >500 | 3,9 µM | 3.9 | – |
| – | – | – | – | – | – | – | – | – | – | CC(=O)NC[C@H]1CN(c2ccc(N3CCOCC3)c(F)c2)C(=O)O1 [Linezolid, reference compound] | – | – | – | – | – | – | MIC ([1]; Streptococcus pneumoniae, PRSP, read-out: MIC Streptococcus pneumonia (PRSP) 884-NA): 2 µg/mL (≈ 5.93 µM); MIC ([2]; Enterococcus faecalis, ATCC29212, read-out: MIC Enterococcus faecalis 101-29212): 2 µg/mL (≈ 5.93 µM); MIC ([3]; Escherichia coli, ATCC25922, read-out: MIC Escherichia coli 102-25922): > 64 µg/mL; MIC ([4]; Staphylococcus aureus, ATCC29213, read-out: MIC Staphylococcus aureus 100-29213): 4 µg/mL (≈ 11.9 µM); MIC ([5]; Enterococcus faecalis, VRE, read-out: MIC Enterococcus faecalis (VRE) 848-NA): 2 µg/mL (≈ 5.93 µM); MIC ([6]; Pseudomonas aeruginosa, ATCC27853, read-out: MIC Pseudomonas aeruginosa 103-27853): > 64 µg/mL; MIC ([7]; Streptococcus pneumoniae, ATCC49619, read-out: MIC Streptococcus pneumoniae 1195-49619): 2 µg/mL (≈ 5.93 µM); MIC ([8]; Staphylococcus aureus, MRSA, read-out: MIC Staphylococcus aureus (MRSA) 757-NA): 4 µg/mL (≈ 11.9 µM) |

| SMILES | MIC Streptococcus pneumonia (PRSP) 884-NA [1] [µg/mL] | MIC Enterococcus faecalis 101-29212 [2] [µg/mL] | MIC Escherichia coli 102-25922 [3] [µg/mL] | MIC Staphylococcus aureus 100-29213 [4] [µg/mL] | MIC Enterococcus faecalis (VRE) 848-NA [5] [µg/mL] | MIC Pseudomonas aeruginosa 103-27853 [6] [µg/mL] | MIC Streptococcus pneumoniae 1195-49619 [7] [µg/mL] | MIC Staphylococcus aureus (MRSA) 757-NA [8] [µg/mL] | Binding on Lipid II? [11] | Kd [11] [µM] | IC50 (Jurkat) [µM] | IC50 (Caco-2) [µM] | active against E.coli (IC100%) [9] | Bacterial Killing E. coli [9] [µM] | active against S.aureus (IC100%) [10] | Bacterial Killing S. aureus [10] [µM] | also measured |
| --- | --- | --- | --- | --- | --- | --- | --- | --- | --- | --- | --- | --- | --- | --- | --- | --- | --- |
| Oc1ccccc1Oc1c(F)c(F)c(-c2c(F)c(F)c(Oc3ccccc3O)c(F)c2F)c(F)c1F [Compound 1611-0203, 2-{2,3,5,6-tetrafluoro-4-[2,3,5,6-tetrafluoro-4-(2-hydroxyphenoxy)phenyl]phenoxy}phenol] | >16 | 1 (≈ 1.94 µM) | >4 | 2 (≈ 3.89 µM) | 1 (≈ 1.94 µM) | >4 | >16 | 2 (≈ 3.89 µM) | – | 59.6 | – | – | – | >500 | 3,9 µM | 3.9 | IC50 (Jurkat; concentration resulting in 50% cell survival, MTT, 4 h, read-out: Cytotoxicity (C50%) Jurkat): 63.4 µM; IC50 (Caco-2; concentration resulting in 50% cell survival, MTT, 24 h, read-out: Cytotoxicity (C50%) Caco-2): 4.2 µM |
